The results in this text go back to paper PMC7614683, “A small molecule PI3Kα activator for cardioprotection and neuroregeneration” (Nature, 2023).

What all share (experiment): SelectScreen Z-LYTE kinase activity assay (SI Table 6)
Common to all, as to assay type: biochemical

Experiment [1] has as its target protein kinases of the Z-LYTE panel (Homo sapiens, UniProt O96013). The method, then:
(§1) 133 protein kinases and 7 lipid kinases were counterscreened, with 1938 used at 1 μM, using the Adapta, Lantha and Z-LYTE assays (SelectScreen Kinase Profiling Service; Thermofisher – experimental details of these assays can be found here: https://www.thermofisher.com/uk/en/home/industrial/pharma-biopharma/drug-discovery-development/target-and-lead-identification-and-validation/kinasebiology/kinase-activity-assays.html. The tree represention in KinMap[59] generated courtesy of Cell Signaling Technology, Inc. (www.cellsignal.com). mTORC1 (mTOR/RAPTOR/LST8) protein complex and ATM kinase and substrates were produced as previously described[57],[60]. Screening of 1938 was conducted using SuperSep Phos-Tag 50 μmol/l 100 x 100 x 6.6 mm 17-well (192-18001/199-18011) gels. For ATM assays, 100 nM ATM was incubated for 30 min at 30°C with 5 μM GST-p53 and 1 mM ATP, in the absence or presence of 200 μM 1938 in ATM Kinase Buffer (50 mM HEPES pH 7.5, 100 mM NaCl, 10% glycerol, 2 mM […], 5 mM MgCl2). As a positive control for ATM activation, the same reaction was carried out with 100 nM ATM/5 μM GST-p53/1 mM ATP in the presence of 100 nM Mre11-Rad50-Nbs1 (MRN) complex, a known activator of ATM[61]. For mTORC1 assays, 50 nM mTORC1 complex (mTOR/LST8/RAPTOR) was incubated for 3 h at 30°C with 15 μM 4E-BP1, 10 mM MgCl2 and 250 μM ATP, in the absence or presence of 200 μM 1938. As a ‘positive’ control, a higher concentration (150 nM) of mTORC1 complex (mTOR/LST8/RAPTOR) was incubated for 3 h at 30°C with 15 μM 4E-BP1, 10 mM MgCl2 and 250 μM ATP. Kinase reactions were quenched by addition of SDS-PAGE Loading Buffer (as per manufacturer’s instructions) and freezing at -20°C before being run on the Phos-tag gels at 150 V for 90 min. Gels were then stained using InstantBlue™ Coomassie, and quantified using BioRad Image Lab Software. Kinase assays were carried out in triplicate.

Experiment [2] has as its target protein kinases of the Z-LYTE panel (Homo sapiens, UniProt P28482). The method, then: as §1
The target of experiment [3] is T1, protein kinases of the Z-LYTE panel (Homo sapiens, UniProt P52333).
T1 sequence (P52333 1-1124): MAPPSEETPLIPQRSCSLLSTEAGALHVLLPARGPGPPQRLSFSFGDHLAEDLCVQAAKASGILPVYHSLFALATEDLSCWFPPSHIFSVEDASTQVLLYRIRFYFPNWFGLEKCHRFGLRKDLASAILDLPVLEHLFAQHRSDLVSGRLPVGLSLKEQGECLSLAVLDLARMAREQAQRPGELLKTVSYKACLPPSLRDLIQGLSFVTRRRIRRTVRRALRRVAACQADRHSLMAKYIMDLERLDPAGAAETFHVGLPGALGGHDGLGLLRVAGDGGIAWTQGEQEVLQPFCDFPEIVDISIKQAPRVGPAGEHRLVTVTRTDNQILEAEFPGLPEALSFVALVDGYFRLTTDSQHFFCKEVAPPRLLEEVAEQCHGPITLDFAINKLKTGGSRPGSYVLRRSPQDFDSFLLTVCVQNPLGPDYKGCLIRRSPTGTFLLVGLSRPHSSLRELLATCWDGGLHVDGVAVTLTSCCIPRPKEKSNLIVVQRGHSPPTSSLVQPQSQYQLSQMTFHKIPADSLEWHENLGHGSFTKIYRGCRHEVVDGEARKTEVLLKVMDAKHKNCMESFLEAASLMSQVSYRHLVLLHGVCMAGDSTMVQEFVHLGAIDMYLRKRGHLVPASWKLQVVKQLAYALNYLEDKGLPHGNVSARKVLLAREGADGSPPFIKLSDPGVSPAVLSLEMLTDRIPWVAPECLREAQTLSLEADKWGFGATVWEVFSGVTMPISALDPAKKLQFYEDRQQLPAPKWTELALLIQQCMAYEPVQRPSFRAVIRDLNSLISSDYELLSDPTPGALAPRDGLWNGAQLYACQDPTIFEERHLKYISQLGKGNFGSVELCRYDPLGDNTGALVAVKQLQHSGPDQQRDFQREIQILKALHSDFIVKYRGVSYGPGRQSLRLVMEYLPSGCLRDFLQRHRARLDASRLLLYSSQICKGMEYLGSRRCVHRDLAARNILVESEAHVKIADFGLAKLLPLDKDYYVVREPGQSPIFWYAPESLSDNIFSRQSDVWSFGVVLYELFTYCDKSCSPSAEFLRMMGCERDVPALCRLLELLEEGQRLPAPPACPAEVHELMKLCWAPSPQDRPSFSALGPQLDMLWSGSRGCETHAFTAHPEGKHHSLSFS
The method, then:
as §1

Experiment [4] deals with protein kinases of the Z-LYTE panel (Homo sapiens, UniProt P06493). The method, then:
as §1

Experiment [5] has as its target protein kinases of the Z-LYTE panel (Homo sapiens, UniProt Q15418). The method, then: as §1
Experiment [6] addresses protein kinases of the Z-LYTE panel (Homo sapiens, UniProt P15056). The settings on record: BRAF, 1000 nM, [ATP] 100 μM. The method, then: as §1
The target of experiment [7] is protein kinases of the Z-LYTE panel (Homo sapiens, UniProt P11362). The method, then:
as §1

As usually defined, the inhibition is the drop in the measured response relative to a control, in per cent.

Where two headings read alike, the source gives them in different places.

Sequence of protein kinases of the Z-LYTE panel (Homo sapiens, UniProt Q15418) (Q15418 whole entry): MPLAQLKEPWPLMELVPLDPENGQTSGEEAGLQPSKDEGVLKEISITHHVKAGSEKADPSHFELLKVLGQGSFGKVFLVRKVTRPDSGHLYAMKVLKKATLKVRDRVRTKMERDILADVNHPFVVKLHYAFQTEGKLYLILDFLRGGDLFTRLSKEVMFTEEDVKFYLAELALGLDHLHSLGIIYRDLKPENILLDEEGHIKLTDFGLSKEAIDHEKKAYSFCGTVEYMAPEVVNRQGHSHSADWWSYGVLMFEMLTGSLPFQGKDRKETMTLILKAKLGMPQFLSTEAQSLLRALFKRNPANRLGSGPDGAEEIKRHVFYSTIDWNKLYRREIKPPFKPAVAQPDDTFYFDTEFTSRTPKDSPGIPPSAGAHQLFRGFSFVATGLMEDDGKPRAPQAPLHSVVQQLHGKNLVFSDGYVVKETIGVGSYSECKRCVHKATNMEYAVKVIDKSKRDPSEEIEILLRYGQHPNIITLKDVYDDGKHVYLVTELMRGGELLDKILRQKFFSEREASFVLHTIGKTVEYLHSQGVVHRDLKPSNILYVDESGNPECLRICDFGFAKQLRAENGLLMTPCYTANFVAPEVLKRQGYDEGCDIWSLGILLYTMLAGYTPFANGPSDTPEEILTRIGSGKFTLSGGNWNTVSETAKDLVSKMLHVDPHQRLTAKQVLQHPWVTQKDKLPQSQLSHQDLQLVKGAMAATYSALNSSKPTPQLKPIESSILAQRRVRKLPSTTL
Sequence of protein kinases of the Z-LYTE panel (Homo sapiens, UniProt P11362) (P11362 22-822): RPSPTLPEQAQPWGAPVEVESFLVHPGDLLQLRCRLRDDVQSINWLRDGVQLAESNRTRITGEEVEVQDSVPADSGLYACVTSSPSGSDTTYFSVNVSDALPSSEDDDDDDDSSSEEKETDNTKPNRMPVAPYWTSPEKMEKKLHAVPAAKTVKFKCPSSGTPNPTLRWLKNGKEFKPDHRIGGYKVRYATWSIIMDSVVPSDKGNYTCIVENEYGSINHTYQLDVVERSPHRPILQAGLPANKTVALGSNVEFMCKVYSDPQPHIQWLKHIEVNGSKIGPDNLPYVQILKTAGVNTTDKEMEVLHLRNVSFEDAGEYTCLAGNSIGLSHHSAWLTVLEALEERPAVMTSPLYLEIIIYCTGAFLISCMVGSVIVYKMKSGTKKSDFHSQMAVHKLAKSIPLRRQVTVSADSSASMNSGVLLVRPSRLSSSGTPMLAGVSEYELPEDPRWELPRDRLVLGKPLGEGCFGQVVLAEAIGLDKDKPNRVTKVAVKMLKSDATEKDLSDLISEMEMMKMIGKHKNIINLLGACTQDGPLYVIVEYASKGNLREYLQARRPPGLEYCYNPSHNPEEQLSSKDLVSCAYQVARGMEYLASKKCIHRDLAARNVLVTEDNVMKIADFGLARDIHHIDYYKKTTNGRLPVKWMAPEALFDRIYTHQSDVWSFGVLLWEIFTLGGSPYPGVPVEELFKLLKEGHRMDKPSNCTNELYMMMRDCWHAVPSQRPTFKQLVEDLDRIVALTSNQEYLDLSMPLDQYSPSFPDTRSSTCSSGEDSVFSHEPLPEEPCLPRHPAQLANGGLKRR
Sequence of protein kinases of the Z-LYTE panel (Homo sapiens, UniProt O96013) (O96013 whole entry): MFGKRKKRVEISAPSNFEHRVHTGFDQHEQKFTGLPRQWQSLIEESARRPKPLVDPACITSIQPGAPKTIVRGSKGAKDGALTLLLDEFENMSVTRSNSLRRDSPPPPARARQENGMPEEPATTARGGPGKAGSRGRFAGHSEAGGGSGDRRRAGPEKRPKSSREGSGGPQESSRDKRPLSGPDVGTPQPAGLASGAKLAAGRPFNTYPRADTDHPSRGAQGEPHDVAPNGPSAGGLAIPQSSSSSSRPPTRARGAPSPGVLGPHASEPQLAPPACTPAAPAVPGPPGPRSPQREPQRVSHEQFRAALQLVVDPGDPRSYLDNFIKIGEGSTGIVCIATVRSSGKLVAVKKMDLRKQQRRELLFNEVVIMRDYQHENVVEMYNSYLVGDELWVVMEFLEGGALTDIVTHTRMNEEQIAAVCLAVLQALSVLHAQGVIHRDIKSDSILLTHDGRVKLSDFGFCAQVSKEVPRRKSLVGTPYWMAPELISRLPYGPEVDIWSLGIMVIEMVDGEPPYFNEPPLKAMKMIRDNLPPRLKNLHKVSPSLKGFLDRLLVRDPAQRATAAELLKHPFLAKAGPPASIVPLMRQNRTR
Sequence of protein kinases of the Z-LYTE panel (Homo sapiens, UniProt P06493) (P06493 whole entry): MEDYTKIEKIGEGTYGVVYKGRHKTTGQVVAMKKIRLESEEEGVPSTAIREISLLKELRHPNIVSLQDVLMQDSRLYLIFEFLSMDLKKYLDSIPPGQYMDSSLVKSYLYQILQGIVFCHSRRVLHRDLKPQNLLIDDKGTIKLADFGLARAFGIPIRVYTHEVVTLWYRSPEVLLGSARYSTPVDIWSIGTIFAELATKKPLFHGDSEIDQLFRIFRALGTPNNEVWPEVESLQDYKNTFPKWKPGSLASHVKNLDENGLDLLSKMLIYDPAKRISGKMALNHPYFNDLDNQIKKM
Sequence of protein kinases of the Z-LYTE panel (Homo sapiens, UniProt P15056) (P15056 whole entry): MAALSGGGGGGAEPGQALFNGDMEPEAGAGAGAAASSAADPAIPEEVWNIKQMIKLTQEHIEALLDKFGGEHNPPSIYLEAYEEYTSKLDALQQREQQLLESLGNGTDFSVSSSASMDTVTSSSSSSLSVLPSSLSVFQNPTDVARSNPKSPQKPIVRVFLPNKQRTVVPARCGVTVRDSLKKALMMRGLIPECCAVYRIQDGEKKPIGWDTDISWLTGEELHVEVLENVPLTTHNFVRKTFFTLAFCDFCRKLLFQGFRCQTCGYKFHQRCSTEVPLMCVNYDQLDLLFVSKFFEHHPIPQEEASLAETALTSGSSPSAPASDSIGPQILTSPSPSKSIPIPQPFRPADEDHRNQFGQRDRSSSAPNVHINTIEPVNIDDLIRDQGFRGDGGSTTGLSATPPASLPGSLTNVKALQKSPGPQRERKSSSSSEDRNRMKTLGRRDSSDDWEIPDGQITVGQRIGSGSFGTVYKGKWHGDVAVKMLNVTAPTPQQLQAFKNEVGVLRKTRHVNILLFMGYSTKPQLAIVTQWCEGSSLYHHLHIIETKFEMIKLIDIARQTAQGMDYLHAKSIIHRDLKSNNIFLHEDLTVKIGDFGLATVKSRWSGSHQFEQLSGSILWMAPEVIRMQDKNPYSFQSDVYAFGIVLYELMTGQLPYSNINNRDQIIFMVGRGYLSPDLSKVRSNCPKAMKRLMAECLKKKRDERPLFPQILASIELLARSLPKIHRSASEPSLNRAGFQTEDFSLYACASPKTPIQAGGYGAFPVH
Sequence of protein kinases of the Z-LYTE panel (Homo sapiens, UniProt P28482) (P28482 whole entry): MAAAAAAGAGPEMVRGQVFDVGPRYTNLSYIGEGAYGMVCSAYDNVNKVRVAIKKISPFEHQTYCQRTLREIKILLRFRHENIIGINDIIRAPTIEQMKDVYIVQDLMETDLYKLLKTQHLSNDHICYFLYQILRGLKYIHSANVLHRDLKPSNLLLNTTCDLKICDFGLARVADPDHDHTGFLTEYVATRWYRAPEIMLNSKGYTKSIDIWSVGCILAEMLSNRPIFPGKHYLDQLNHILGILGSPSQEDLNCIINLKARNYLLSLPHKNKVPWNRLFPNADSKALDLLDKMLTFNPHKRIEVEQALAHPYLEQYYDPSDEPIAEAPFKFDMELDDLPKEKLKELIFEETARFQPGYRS

Consider `CCN1CCN(c2ccc(Nc3cc(Nc4cccc5c4N(C(C)=O)CC5)ccn3)cc2)CC1` [Compound 1938], for which the inhibition at 1 µM is -3.77% in experiment [1] (read-out: % Inhibition Point 1); -2.13% in experiment [1] (read-out: % Inhibition Point 2); -3% in experiment [1] (read-out: % Inhibition mean); -0.368% in experiment [2] (read-out: % Inhibition Point 1); 13% in experiment [2] (read-out: % Inhibition Point 2); 6.48% in experiment [2] (read-out: % Inhibition mean). In addition, the inhibition at 1 µM was 3% in experiment [3] (read-out: % Inhibition Point 1); 1.12% in experiment [3] (read-out: % Inhibition Point 2); 2% in experiment [3] (read-out: % Inhibition mean); 5.46% in experiment [4] (read-out: % Inhibition Point 1); 3.74% in experiment [4] (read-out: % Inhibition Point 2); 4.6% in experiment [4] (read-out: % Inhibition mean). The inhibition at 1 µM in experiment [5] (read-out: % Inhibition Point 1) worked out at 6%; in experiment [5] (read-out: % Inhibition Point 2), 5.47%; in experiment [5] (read-out: % Inhibition mean), 6%; in experiment [6] (read-out: % Inhibition Point 1), 13%; in experiment [6] (read-out: % Inhibition Point 2) it was 12%; in experiment [6] (read-out: % Inhibition mean), 13%. Moreover, the inhibition at 1 µM in experiment [7] (read-out: % Inhibition Point 1) stood at 25%; in experiment [7] (read-out: % Inhibition Point 2) it was 23%; in experiment [7] (read-out: % Inhibition mean) it was 24%.
